From patent publication US20240366602A1, “COMBINATION THERAPY OF APELIN RECEPTOR AGONIST AND GLP-1 RECEPTOR AGONIST FOR TREATING A DISEASE OR CONDITION ASSOCIATED WITH WEIGHT GAIN” (BioAge Labs, Inc., priority 2023, published 2024)

Key:
[1] = system: Diet-Induced Obese Mice; assay: Combination of BAL-1480 and tirzepatide in obese mice (Example 6); format: in vivo
Source text: To measure the effect of another APJ agonist, BAL-1480, compound 13 as described by Narayanan et al. in J. Med. Chem. 2021, 64, 3006-3025, on weight loss or body composition in Diet-Induced Obese Mice by GLP-1 receptor agonist tirzepatide.
Measurement used and justifications include: body weight, food intake, water intake, non-fasted blood glucose, and body composition by Echo-MRI.
C57BL/6 obese male mice from Jax and housed to 9-months old were fed with a lean control diet D12450B (10 kcal % fat) and a diet-induced obesity (DIO) diet D12492 (60 kcal % fat) (Research Diets, Inc.).
Male DIO mice were acclimated to a single house cage for two weeks. Body weight, morning non-fasted blood glucose, and body composition were measured for randomization. Target DIO weight range at randomization 51.4-67.5 g. After randomization, mice were given treatment as the following groups (All groups were paired with relative dosing s.c. vehicle (20 mM citrate buffer at pH 7.0, 4 mL/kg) or drinking water with addition of 5 mM Sucralose (5 mM Sucralose, pH 3) to insure water consumption despite possible taste alterations from drug).
Study groups • 0. Lean ctrl, n=7 • 1. DIO+VEH (vehicle), n=7 • 2. DIO+BAL-1480 (0.25 g/L in drug water), n=7 • 3. DIO+BAL-1480 (1 g/L in drug water), n=7 • 4. DIO+tirzepatide (10 nmol/kg), n=7 • 5. DIO+tirzepatide (10 nmol/kg)+BAL-1480 (0.25 g/L in drug water), n=7 • 6. DIO+tirzepatide (10 nmol/kg)+BAL-1480 (1 g/L in drug water), n=7
(0) Lean control: age matched lean mice control (5 mM sucralose water+vehicle, s.c., every 3 days); (1) DIO+VEH: diet-induced obese mice treated with vehicle control (5 mM sucralose water, pH 3+vehicle, s.c., every 3 days); (2) DIO+BAL-1480 (0.25 g/L in drug water): diet-induced obese mice treated with BAL-1480 at 0.25 g/L; (3) DIO+BAL-1480 (1 g/L in drug water): diet-induced obese mice treated with BAL-1480 at 1 g/L; (4) DIO+tirzepatide (10 nmol/kg): diet-induced obese mice treated with tirzepatide at 10 nmol/kg, s.c., every 3 days+5 mM sucralose water, pH 3; (5) DIO+tirzepatide (10 nmol/kg)+BAL-1480 (0.25 g/L in drug water): diet-induced obese mice treated with tirzepatide at 10 nmol/kg in combination with BAL-1480 at 0.25 g/L; (6) DIO+tirzepatide (10 nmol/kg)+BAL-1480 (1 g/L in drug water): diet-induced obese mice treated with tirzepatide at 10 nmol/kg in combination with BAL-1480 at 1 g/L.
Tirzepatide (hydrochloride) was purchased from MCE (Cat No. HY—P1731B/CS-0107005). Mw=4849.91, 10 nmol/kg=0.0485 mg/kg, 4 mL/kg, drug concentration: 0.012 mg/mL in s.c. vehicle, every 3 days. BAL-1480 0.25 g/L or 1 g/L was prepared in drinking water with 5 mM Sucralose, pH 3.
Body weight, food intake, water intake, body composition and morning non-fasted blood glucose were measured during the entire study. After 20 days of treatment and measurement, mice were taken down to harvest tissues for further downstream analysis. On the day of necropsy, blood plasma and organ/tissue samples were collected. Tissue samples were weighed and processed for further tests. Terminal cardiac blood samples (Heparin plasma) were obtained.
Data were expressed as mean±SEM and statistically analyzed by 1-way or 2-way ANOVA

[2] = system: Diet-Induced Obese (DIO) mice; assay: Pilot study of BGE-105 in aged DIO mice treated with semaglutide (Example 1); format: in vivo
Source text: Endpoints and measurements used to assess effects included: • Body Weight, Clinical Evaluation & Body Condition Score; • Group Food Intake, Water Intake; • Fed Glucose; • Body composition by Echo-MRI; • Baseline and endpoint grid hang tests; and • Endpoint tissue harvest.
25-month-old (aged) C57BL/6 female mice were used in this study. Diet for 25-month-old C57BL/6 mice included lean control D12450B (10 kcal % fat), or a diet induced-obesity (DIO) diet D12492 (60 kcal % fat) (Research Diets, Inc.). The study duration was 37 days. Treatment started on Day 0 and ended on Day 35-36.
Semaglutide was purchased from MCE (Cat No. HY-114118/CS-0069903)
Mice from all Groups (1-5) were measured with fed glucose, and body weight and body composition for randomization.
Body weight, group food intake, group water intake, body composition and grid hang tests were measured and monitored during the study.
On the day of necropsy, blood plasma and tissue samples were collected.

[3] = BAL-1480 monotherapy 1 g/L, both combination groups, vs tirzepatide monotherapy

Compound: COc1cccc(OC)c1-c1cc(C(=O)N[C@@H](CCN2CCCCC2)CC(=O)NC2CCC2)nn1C1CCCC1 [BAL-1480]
- Fatty liver weight and fat tissue weights at terminal harvest ([1]; BAL-1480 1 g/L and combination groups vs tirzepatide monotherapy): reduced the fatty liver weight and fat tissue weights
- Muscle to body weight percentages at terminal harvest ([1]; BAL-1480 1 g/L and combination groups, to similar level as lean control mice): dramatically increased the muscle to body weight percentages
- Fat mass percentage [1, 3]: significant decrease of fat mass percentage
- Lean mass percentage [1, 3]: significant increase of lean mass percentage
- Lean/fat ratio [1, 3]: significant increase of lean/fat ratio
- Absolute fat mass ([1]; BAL-1480 monotherapy 1 g/L, combinations tirzepatide 10 nmol/kg + BAL-1480 0.25 or 1 g/L, vs tirzepatide monotherapy): significant reduction of absolute fat mass
- Weight loss ([1]; obese mice, BAL-1480 0.25 and 1 g/L in drinking water): dose-dependent effect on weight loss

Compound: semaglutide [reference compound]
- Muscle function, grid hang test (latency before mice fell from the grid) ([2]; semaglutide 100 nmol/kg, BGE-105 1.1 mg/mL, combination compared to either agent alone): increased muscle function
- Weight of perigonadal fat at study endpoint ([2]; semaglutide 100 nmol/kg, BGE-105 1.1 mg/mL, combination loss statistically significant): statistically insignificant loss in perigonadal fat
- Quadriceps weight as a percentage of total body weight at study endpoint ([2]; semaglutide 100 nmol/kg, BGE-105 1.1 mg/mL, vs DIO control mice): increased quadricep weight as a percentage of total body weight, but the increases did not achieve statistical significance
- neutrophil gelatinase-associated lipocalin (NGAL) level at study endpoint ([2]; vs DIO control mice): decreased plasma NGAL level
